# PubChem BioAssay (NCI)
#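 Five concentrations, 48 hours, 96-well plates. Here, GI50 denotes the concentration required for 50% inhibition of growth. TGI: total growth inhibition.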
# How the values were obtained:
# Experiment in all cases: NCI-60 cell line screen, 48 h
# [1] = system: 786-0 renal
# [2] = system: A498 renal
# [3] = system: A549 NSCLC
# [4] = system: ACHN renal
# [5] = system: CAKI-1 renal
# [6] = system: CCRF-CEM leukemia
# [7] = system: DLD-1 colon
# [8] = system: DMS 273 small cell lung
# [9] = system: HCT-116 colon
# [10] = system: HL-60(TB) leukemia
# [11] = system: HOP-18 NSCLC
# [12] = system: HOP-62 NSCLC
# [13] = system: HOP-92 NSCLC
# [14] = system: IGROV1 ovarian
# [15] = system: K-562 leukemia
# [16] = system: M14 melanoma
# [17] = system: M19-MEL melanoma
# [18] = system: MALME-3M melanoma
# [19] = system: MOLT-4 leukemia
# [20] = system: NCI-H23 lung
# [21] = system: NCI-H522 lung
# [22] = system: OVCAR-4 ovarian
# [23] = system: RPMI-8226 leukemia
# [24] = system: SF-539 CNS
# [25] = system: SK-MEL-28 melanoma
# [26] = system: SK-MEL-5 melanoma
# [27] = system: SNB-19 CNS
# [28] = system: SNB-75 CNS
# [29] = system: SNB-78 CNS
# [30] = system: SR leukemia
# [31] = system: SW-620 colon
# [32] = system: TK-10 renal
# [33] = system: UACC-257 melanoma
# [34] = system: UACC-62 melanoma
# [35] = system: UO-31 renal
# [36] = system: COLO 205 colon
# [37] = system: DMS 114 small cell lung
# [38] = system: EKVX NSCLC
# [39] = system: HCC-2998 colon
# [40] = system: HCT-15 colon
# [41] = system: HT29 colon
# [42] = system: KM12 colon
# [43] = system: KM20L2 colon
# [44] = system: LOX IMVI melanoma
# [45] = system: LXFL 529 NSCLC
# [46] = system: NCI-H226 lung
# [47] = system: NCI-H460 lung
# [48] = system: OVCAR-3 ovarian
# [49] = system: OVCAR-5 ovarian
# [50] = system: OVCAR-8 ovarian
# [51] = system: RXF 393 renal
# [52] = system: SF-268 CNS
# [53] = system: SF-295 CNS
# [54] = system: SK-MEL-2 melanoma
# [55] = system: SK-OV-3 ovarian
# [56] = system: SN12C renal
# [57] = system: U251 CNS
# [58] = system: BT-549 breast
# [59] = system: DU-145 prostate
# [60] = system: HS 578T breast
# [61] = system: MCF7 breast
# [62] = system: MDA-MB-231 breast
# [63] = system: MDA-MB-435
# [64] = system: PC-3 prostate
# [65] = system: T-47D breast
structure (smiles),measurement,setting,value
O=C1C(C(Nc2ccccc2)c2ccccc2)=C([O-])c2ccccc21.O=C1C(C(Nc2ccccc2)c2ccccc2)=C([O-])c2ccccc21.[Co+2] (stereo not drawn),GI50,[1],7.11 µM
same,TGI,[1],> 100 µM
same,GI50,[2],5.13 µM
same,TGI,[2],> 100 µM
same,GI50,[3],4.2 µM
same,TGI,[3],> 100 µM
same,GI50,[4],6.62 µM
same,TGI,[4],> 100 µM
same,GI50,[5],18.7 µM
same,TGI,[5],> 100 µM
same,GI50,[6],4.96 µM
same,TGI,[6],> 100 µM
same,GI50,[7],4.02 µM
same,TGI,[7],> 100 µM
same,GI50,[8],4.08 µM
same,TGI,[8],> 100 µM
same,GI50,[9],3.15 µM
same,TGI,[9],> 100 µM
same,GI50,[10],3.72 µM
same,TGI,[10],> 100 µM
same,GI50,[11],11.5 µM
same,TGI,[11],> 100 µM
same,GI50,[12],> 100 µM
same,TGI,[12],> 100 µM
same,GI50,[13],6.92 µM
same,TGI,[13],> 100 µM
same,GI50,[14],5.6 µM
same,TGI,[14],> 100 µM
same,GI50,[15],3.2 µM
same,TGI,[15],> 100 µM
same,GI50,[16],3.86 µM
same,TGI,[16],> 100 µM
same,GI50,[17],15.2 µM
same,TGI,[17],> 100 µM
same,GI50,[18],5.48 µM
same,TGI,[18],> 100 µM
same,GI50,[19],4.04 µM
same,TGI,[19],> 100 µM
same,GI50,[20],4.3 µM
same,TGI,[20],> 100 µM
same,GI50,[21],2.31 µM
same,TGI,[21],5.43 µM
same,GI50,[22],3.38 µM
same,TGI,[22],9.92 µM
same,GI50,[23],2.8 µM
same,TGI,[23],> 100 µM
same,GI50,[24],3.3 µM
same,TGI,[24],> 100 µM
same,GI50,[25],5.55 µM
same,TGI,[25],> 100 µM
same,GI50,[26],3.78 µM
same,TGI,[26],> 100 µM
same,GI50,[27],> 100 µM
same,TGI,[27],> 100 µM
same,GI50,[28],4.49 µM
same,TGI,[28],79.8 µM
same,GI50,[29],> 100 µM
same,TGI,[29],> 100 µM
same,GI50,[30],6.07 µM
same,TGI,[30],> 100 µM
same,GI50,[31],4.75 µM
same,TGI,[31],> 100 µM
same,GI50,[32],5.48 µM
same,TGI,[32],86 µM
same,GI50,[33],5.04 µM
same,TGI,[33],46.4 µM
same,GI50,[34],5.45 µM
same,TGI,[34],> 100 µM
same,GI50,[35],2.69 µM
same,TGI,[35],53.8 µM
CC1(C)CC2(S(=O)(=O)c3ccccc3)ON1CC2S(=O)(=O)c1ccccc1 (stereo not drawn),TGI,[1],> 100 µM
same,TGI,[3],> 100 µM
same,TGI,[4],> 100 µM
same,TGI,[5],> 100 µM
same,TGI,[6],89.9 µM
same,TGI,[36],> 100 µM
same,TGI,[7],> 100 µM
same,TGI,[37],> 100 µM
same,TGI,[8],> 100 µM
same,TGI,[38],> 100 µM
same,TGI,[39],> 100 µM
same,TGI,[9],> 100 µM
same,TGI,[40],> 100 µM
same,TGI,[10],78.5 µM
same,TGI,[12],> 100 µM
same,TGI,[41],> 100 µM
same,TGI,[14],> 100 µM
same,TGI,[15],> 100 µM
same,TGI,[42],> 100 µM
same,TGI,[43],> 100 µM
same,TGI,[44],> 100 µM
same,TGI,[45],> 100 µM
same,TGI,[16],> 100 µM
same,TGI,[17],> 100 µM
same,TGI,[18],> 100 µM
same,TGI,[19],> 100 µM
same,TGI,[46],> 100 µM
same,TGI,[20],> 100 µM
same,TGI,[47],> 100 µM
same,TGI,[21],> 100 µM
same,TGI,[48],> 100 µM
same,TGI,[22],> 100 µM
same,TGI,[49],> 100 µM
same,TGI,[50],> 100 µM
same,TGI,[23],> 100 µM
same,TGI,[51],> 100 µM
same,TGI,[52],> 100 µM
same,TGI,[53],> 100 µM
same,TGI,[24],> 100 µM
same,TGI,[54],> 100 µM
same,TGI,[25],> 100 µM
same,TGI,[55],> 100 µM
same,TGI,[56],> 100 µM
same,TGI,[27],> 100 µM
same,TGI,[28],> 100 µM
same,TGI,[30],> 100 µM
same,TGI,[31],> 100 µM
same,TGI,[32],> 100 µM
same,TGI,[57],> 100 µM
same,TGI,[33],> 100 µM
same,TGI,[34],> 100 µM
same,TGI,[35],> 100 µM
Cc1cc(=O)[nH]c(NN2C(Cl)C(=O)C2c2ccc(O)cc2)n1 (stereo not drawn),TGI,[1],18.2 µM
same,TGI,[2],21.5 µM
same,TGI,[3],31.2 µM
same,TGI,[4],22 µM
same,TGI,[58],27.1 µM
same,TGI,[5],20.4 µM
same,TGI,[36],40.7 µM
same,TGI,[8],18.1 µM
same,TGI,[59],22.8 µM
same,TGI,[38],18.3 µM
same,TGI,[39],23.3 µM
same,TGI,[9],14.3 µM
same,TGI,[40],15.4 µM
same,TGI,[10],7.69 µM
same,TGI,[11],27.8 µM
same,TGI,[12],19 µM
same,TGI,[13],29.4 µM
same,TGI,[60],51.7 µM
same,TGI,[41],35.1 µM
same,TGI,[14],21.7 µM
same,TGI,[42],25 µM
same,TGI,[43],46.5 µM
same,TGI,[44],7.27 µM
same,TGI,[45],22.2 µM
same,TGI,[16],24.6 µM
same,TGI,[17],23.1 µM
same,TGI,[18],30.7 µM
same,TGI,[61],27.4 µM
same,TGI,[62],30 µM
same,TGI,[63],20.5 µM
same,TGI,[19],> 79.2 µM
same,TGI,[46],32.6 µM
same,TGI,[47],18.1 µM
same,TGI,[21],32.8 µM
same,TGI,[48],18.9 µM
same,TGI,[22],19 µM
same,TGI,[49],35.2 µM
same,TGI,[50],28.6 µM
same,TGI,[64],26.8 µM
same,TGI,[23],5.59 µM
same,TGI,[51],17.2 µM
same,TGI,[52],32.3 µM
same,TGI,[53],21.4 µM
same,TGI,[24],24.3 µM
same,TGI,[54],29.5 µM
same,TGI,[25],24.1 µM
same,TGI,[26],21.5 µM
same,TGI,[55],23.4 µM
same,TGI,[56],23.5 µM
same,TGI,[27],23.2 µM
same,TGI,[28],7.92 µM
same,TGI,[29],24.2 µM
same,TGI,[30],> 25.6 µM
same,TGI,[31],28.9 µM
same,TGI,[65],32.2 µM
same,TGI,[32],31.7 µM
same,TGI,[57],18.4 µM
same,TGI,[33],26.1 µM
same,TGI,[34],18.7 µM
same,TGI,[35],22.4 µM
CN(C)c1ccc(/C=C(/C(=O)O)c2csc(-c3nc(/C(=C\c4ccc(N(C)C)cc4)C(=O)O)cs3)n2)cc1,TGI,[1],> 100 µM
same,TGI,[2],> 100 µM
same,TGI,[3],> 100 µM
same,TGI,[4],> 100 µM
same,TGI,[5],> 100 µM
same,TGI,[6],> 100 µM
same,TGI,[36],> 100 µM
same,TGI,[7],> 100 µM
same,TGI,[37],> 100 µM
same,TGI,[38],> 100 µM
same,TGI,[39],> 100 µM
same,TGI,[9],> 100 µM
same,TGI,[40],> 100 µM
same,TGI,[10],> 100 µM
same,TGI,[12],> 100 µM
same,TGI,[13],> 100 µM
same,TGI,[41],> 100 µM
same,TGI,[14],> 100 µM
same,TGI,[15],> 100 µM
same,TGI,[42],> 100 µM
same,TGI,[43],> 100 µM
same,TGI,[44],> 100 µM
same,TGI,[45],> 100 µM
same,TGI,[16],> 100 µM
same,TGI,[17],> 100 µM
same,TGI,[18],> 100 µM
same,TGI,[19],> 100 µM
same,TGI,[46],> 100 µM
same,TGI,[20],> 100 µM
same,TGI,[47],> 100 µM
same,TGI,[48],> 100 µM
same,TGI,[49],> 100 µM
same,TGI,[50],> 100 µM
same,TGI,[23],> 100 µM
same,TGI,[51],> 100 µM
same,TGI,[52],> 100 µM
same,TGI,[53],> 100 µM
same,TGI,[24],> 100 µM
same,TGI,[54],> 100 µM
same,TGI,[25],> 100 µM
same,TGI,[26],> 100 µM
same,TGI,[55],> 100 µM
same,TGI,[56],> 100 µM
same,TGI,[28],> 100 µM
same,TGI,[29],> 100 µM
same,TGI,[31],> 100 µM
same,TGI,[32],> 100 µM
same,TGI,[57],> 100 µM
same,TGI,[33],> 100 µM
same,TGI,[34],> 100 µM
same,TGI,[35],> 100 µM
